Assay results as given in BigSolDB 2.1.

CC(=O)N1CCN(c2ccc(OC[C@@H]3CO[C@@](Cn4ccnc4)(c4ccc(Cl)cc4Cl)O3)cc2)CC1 (racemic)
Conditions	solubility (mole fraction)
in PEG-200, 298.2 K	0.00611
in PEG-200, 303.2 K	0.00718
in PEG-200, 308.2 K	0.00908
in PEG-200, 313.2 K	0.0118
in PEG-200, 318.2 K	0.0144

in water
Conditions	solubility (mole fraction)
298.2 K	4e-07
303.2 K	5e-07
308.2 K	5e-07
313.2 K	7e-07
318.2 K	9e-07
